Reference: patent US20150203474A1, “SOLID FORMS COMPRISING INHIBITORS OF HCV NS5A, COMPOSITIONS THEREOF, AND USES THEREWITH” (PRESIDIO PHARMACEUTICALS ,INC., priority 2012, published 2015)
Values after ≈ are worked out from the molar mass of the structure shown. Where two headings read alike, the source gives them in different places.

Key:
[1] = Solubility of Form A (aliquot addition / slurry, visual); type: physicochemical
Method: Aliquots of various solvents were added to measured amounts of Form A with agitation (typically sonication) at ambient or elevated temperatures until completedissolution was achieved, as judged by visual observation. […] Samples were left to slurry at ambient and elevated temperatures for several days; however, no further dissolution was observed.

[2] = PK study of Form I of Compound II in monkeys; type: in vivo; settings: PO dose of 75 mg/kg; for concentration at 0.083 h / concentration at 0.25 h / concentration at 0.5 hr / concentration at 1 hr / concentration at 2 hr / concentration at 4 hr / concentration at 6 hr / concentration at 8 hr / concentration at 24 h: male, cynomolgus monkey, plasma, po, 75 mg/kg
Method: The pharmacokinetics (PK) properties of Form A of Compound I and Form I of Compound II were determined in a series of comprehensive experiments in preclinical species including Sprague-Dawley rats, beagle dogs, cynomolgus monkeys. In those studies, the Form A crystalline salt of Compound I (and Form I crystalline salt of Compound II) was formulated in saline, 0.5% MC in saline or other commonly used suitable formulation vehicles to give a clear solution or as a suspension or a paste depending on the concentration intended to reach and the choice of vehicles. Dosing was by oral gavage. Blood samples were drawn and placed into individual tube containing K2EDTA. Blood samples were put on ice and centrifuged (2000 g for 5 minutes at 4° C.) to obtain plasma within 15 minutes after collection. Plasma samples were stored at approximately −80° C. freezer until analysis. For most of these analyses, Compound I (and Compound II) and the internal standard (IS) were extracted from rat, monkey or dog plasma by protein precipitation, and the extract was evaporated, reconstituted and analyzed using HPLC with tandem mass spectrometric detection (HPLC-MS/MS), see examples for further details. Calibration was accomplished by weighted linear regression of the ratio of the peak area of analyte to that of the added internal standard (IS). For the validated assay in rat and monkey EDTA plasma, the Lower Limit of Quantitation (LLOQ) for both compound 1 and 2 was 5.00 ng/mL, and the assay was linear from 5.00-1,000 ng/mL. PK parameters were calculated by non-compartmental analysis using WinNonlin (versions 4.1 through 6.1). Non-naïve Cynomolgus monkeys, 3.2-3.5 kg, male Dosing solution was prepared by dissolving 682.96 mg of Form I of Compound II in 82.558 mL of 0.5% MC in saline, vortexing for 5 min and sonicating for 18 min to obtain a homogenous solution. The above solution was given to the animals at 10 mL/kg via intragastric administration To collect blood samples, the animals were restrained manually and approx. 0.6-1 mL blood/time point was collected from cephalic or sephanous veins into pre-cooled EDTA tubes. Blood samples were put on ice and centrifuged at 4° C. to obtain plasma within 30 minutes of sample collection. Plasma samples were stored at −70° C. until analysis. • Instrument LC-MS/MS (API4000) • MS conditions Positive ion, EST • HPLC conditions Mobile Phase A: H2O—0.025% formic acid—1 mM NH4OAc • Mobile Phase B: MeOH—0.025% formic acid—1 mM NH4OAc • Column: Boston Crest ODS-C18 (2.1×50 mm, 5 μm) • Flow rate: 0.40 mL/min • Compound II retention time: 2.30 min; • IS retention time: 2.29 min • Sample preparation An aliquot of 20 μL plasma sample was protein precipitated with […] which contains 5 ng/mL IS (P1100970-1). The mixture was vortexed for 2 min, and then centrifuged at 12000 rpm for 5 min. an aliquot of 5 μL supernatant was injected onto the LC-MS/MS system.

[3] = Solubility of Form I and free base compound 4-3 (visual and HPLC assay of filtrate); type: physicochemical; settings: for solubility at 24 h: thermodynamic from solid; for solubility at 24 h / HPLC Solubility / Visual Solubility (observation in words): target conc. 2.0 mg/mL; for pH (Filtrated): filtrate of solubility sample
Method: Solubility of Form I as well as the free base compound 4-3 was tested. Solubility was measured by placing a small quantity of the compound to be analyzed in a glass vial, capping and rotating the vial overnight at ambient conditions (24 hours). Target concentration was 2.0 mg/mL. The samples were filtrated with 0.45-μm filters. The subsequent filtrate was collected for HPLC assay. HPLC conditions are shown in Table 10 in Appendix A. Solubility for Form I is shown in Table 11 and for the free base compound 4-3 is shown in Table 12 in Appendix A. [table]

[4] = #0610703, read-out: plasma concentration
[5] = #0612169, read-out: plasma concentration
[6] = Mean, read-out: mean plasma concentration

COC(=O)N[C@H](C(=O)N1CCC[C@H]1c1ncc(-c2ccc3cc(-c4ccc5nc([C@@H]6CCCN6C(=O)[C@@H](NC(=O)OC)C(C)C)[nH]c5c4)ccc3c2)[nH]1)C(C)C [Form A of Compound I]
Solubility estimate (in words) ([1]; IPA and IPA/MTBE (2/1 (v/v)) mixtures at ambient and elevated temperatures, aliquot addition): poorly soluble
solubility ([1]; IPA/water (95/5 v/v), organic solvent or mixture, thermodynamic from solid, IPA:H2O (95:5), RT, aliquot addition): 33000 µg/mL (≈ 43300 µM)
solubility ([1]; organic solvent or mixture, thermodynamic from solid, IPA, RT, aliquot addition): < 3000 µg/mL
solubility at 4 days ([1]; organic solvent or mixture, thermodynamic from solid, IPA, RT, slurry, 4 days): < 3000 µg/mL
solubility ([1]; organic solvent or mixture, thermodynamic from solid, IPA, ~60° C., aliquot addition): 2000 µg/mL (≈ 2620 µM)
solubility at 6 days ([1]; organic solvent or mixture, thermodynamic from solid, IPA, ~60° C., slurry, 6 days): < 6000 µg/mL
solubility ([1]; organic solvent or mixture, thermodynamic from solid, IPA:tBME (2:1), RT, aliquot addition): < 2000 µg/mL
solubility at 3 days ([1]; organic solvent or mixture, thermodynamic from solid, IPA:tBME (2:1), RT, slurry): < 2000 µg/mL
solubility ([1]; organic solvent or mixture, thermodynamic from solid, IPA:tBME (2:1), ~60° C., aliquot addition): < 3000 µg/mL
solubility at 3 days ([1]; organic solvent or mixture, thermodynamic from solid, IPA:tBME (2:1), ~60° C., slurry): < 3000 µg/mL

CC[C@H](C)[C@H](NC(=O)OC)C(=O)N1CCC[C@H]1c1nc2ccc(-c3ccc4cc(-c5cnc([C@@H]6CCCN6C(=O)[C@@H](NC(=O)OC)[C@@H](C)OC)[nH]5)ccc4c3)cc2[nH]1 [Form I of Compound II]
plasma concentration ([2]; Cynomolgus monkeys, 0.083 hr, #0610703): BQL
concentration at 0.083 h ([2]; 0.083 hr, #0612169, read-out: plasma concentration): 8.33 ng/mL
concentration at 0.083 h ([2]; 0.083 hr, Mean, read-out: mean plasma concentration): 8.33 ng/mL
concentration at 0.25 h [2, 4]: 33.3 ng/mL
concentration at 0.25 h [2, 5]: 86.8 ng/mL
concentration at 0.25 h [2, 6]: 60.1 ng/mL
concentration at 0.5 hr [2, 4]: 207 ng/mL
concentration at 0.5 hr [2, 5]: 273 ng/mL
concentration at 0.5 hr [2, 6]: 240 ng/mL
concentration at 1 hr [2, 4]: 497 ng/mL
concentration at 1 hr [2, 5]: 1140 ng/mL
concentration at 1 hr [2, 6]: 819 ng/mL
concentration at 2 hr [2, 4]: 336 ng/mL
concentration at 2 hr [2, 5]: 954 ng/mL
concentration at 2 hr [2, 6]: 645 ng/mL
concentration at 4 hr [2, 4]: 213 ng/mL
concentration at 4 hr [2, 5]: 435 ng/mL
concentration at 4 hr [2, 6]: 324 ng/mL
concentration at 6 hr [2, 4]: 110 ng/mL
concentration at 6 hr [2, 5]: 194 ng/mL
concentration at 6 hr [2, 6]: 152 ng/mL
concentration at 8 hr [2, 4]: 55.9 ng/mL
concentration at 8 hr [2, 5]: 93.1 ng/mL
concentration at 8 hr [2, 6]: 74.5 ng/mL
concentration at 24 h [2, 4]: 8.79 ng/mL
concentration at 24 h [2, 5]: 7.37 ng/mL
concentration at 24 h [2, 6]: 8.08 ng/mL
solubility at 24 h ([3]; 0.1N HCl, simulated gastric fluid, 0.1N HCl, 24 hours ambient, 0.45-μm filtrate, read-out: HPLC Solubility): 2070 µg/mL (≈ 2610 µM)
solubility at 24 h ([3]; 0.1N HCl, simulated gastric fluid, 0.1N HCl, read-out: Visual Solubility): > 2000 µg/mL
pH (Filtrated) ([3]; 0.1N HCl, listed as Form I): 1.00
pH (Filtrated) ([3]; Water, listed as Form I): 3.45
HPLC Solubility ([3]; Water, 24 hours ambient, 0.45-μm filtrate, listed as Form I): 2036 µg/mL
solubility at 24 h ([3]; pH 2 medium, pH 2, simulated gastric fluid, pH 2 medium, 24 hours ambient, 0.45-μm filtrate, read-out: HPLC Solubility): 2050 µg/mL (≈ 2590 µM)
solubility at 24 h ([3]; pH 2 medium, pH 2, simulated gastric fluid, pH 2 medium, read-out: Visual Solubility): > 2000 µg/mL
pH (Filtrated) ([3]; pH 2 medium, listed as Form I): 2.00
solubility at 24 h ([3]; pH 3 medium, pH 3, aqueous buffer, pH 3 medium, 24 hours ambient, 0.45-μm filtrate, read-out: HPLC Solubility): 2030 µg/mL (≈ 2560 µM)
solubility at 24 h ([3]; pH 3 medium, pH 3, aqueous buffer, pH 3 medium, read-out: Visual Solubility): > 2000 µg/mL
pH (Filtrated) ([3]; pH 3 medium, listed as Form I): 2.96
pH (Filtrated) ([3]; pH 4 medium, listed as Form I): 3.55
HPLC Solubility ([3]; pH 4 medium, 24 hours ambient, 0.45-μm filtrate, listed as Form I): 1857 µg/mL
Visual Solubility (observation in words) ([3]; pH 4 medium, listed as Form I): A few
pH (Filtrated) ([3]; pH 5 medium, listed as Form I): 3.63
Visual Solubility (observation in words) ([3]; pH 5 medium): Turbid +
HPLC Solubility ([3]; pH 5 medium, 24 hours ambient, 0.45-μm filtrate, listed as Form I): 1106 µg/mL
pH (Filtrated) ([3]; pH 6 medium, listed as Form I): 5.44
Visual Solubility (observation in words) ([3]; pH 6 medium, listed as Form I): Many
pH (Filtrated) ([3]; pH 7 medium, listed as Form I): 6.86
Visual Solubility (observation in words) ([3]; pH 7 medium, listed as Form I): Many
pH (Filtrated) ([3]; pH 8 medium, listed as Form I): 7.58
Visual Solubility (observation in words) ([3]; pH 8 medium, listed as Form I): Many
solubility at 24 h ([3]; water, Water, read-out: Visual Solubility): > 2000 µg/mL
